Results published in PubChem BioAssay (NCI).
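Interpolation was linear, between the two tested concentrations surrounding the appropriate level; five concentrations were tested over 48 hours in 96-well plates. TGI is the concentration that stops growth completely.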

How the values were obtained:
Assay in all cases: DTP human tumour cell line panel, 48 h
OVCAR-3 ovarian = test system: OVCAR-3 ovarian
OVCAR-8 ovarian = test system: OVCAR-8 ovarian
SK-MEL-28 melanoma = test system: SK-MEL-28 melanoma
MDA-N = test system: MDA-N
NCI/ADR-RES ovarian = test system: NCI/ADR-RES ovarian
SK-MEL-2 melanoma = test system: SK-MEL-2 melanoma
SK-MEL-5 melanoma = test system: SK-MEL-5 melanoma
SF-539 CNS = test system: SF-539 CNS
HCT-116 colon = test system: HCT-116 colon
UACC-62 melanoma = test system: UACC-62 melanoma
HOP-62 NSCLC = test system: HOP-62 NSCLC
K-562 leukemia = test system: K-562 leukemia
A498 renal = test system: A498 renal
IGROV1 ovarian = test system: IGROV1 ovarian
786-0 renal = test system: 786-0 renal
EKVX NSCLC = test system: EKVX NSCLC
SNB-75 CNS = test system: SNB-75 CNS
KM12 colon = test system: KM12 colon
CAKI-1 renal = test system: CAKI-1 renal
COLO 205 colon = test system: COLO 205 colon
OVCAR-4 ovarian = test system: OVCAR-4 ovarian
PC-3 prostate = test system: PC-3 prostate
BT-549 breast = test system: BT-549 breast
UO-31 renal = test system: UO-31 renal
HS 578T breast = test system: HS 578T breast
DU-145 prostate = test system: DU-145 prostate
LOX IMVI melanoma = test system: LOX IMVI melanoma
SNB-19 CNS = test system: SNB-19 CNS
HOP-92 NSCLC = test system: HOP-92 NSCLC
SF-295 CNS = test system: SF-295 CNS
A549 NSCLC = test system: A549 NSCLC
NCI-H23 lung = test system: NCI-H23 lung
HCT-15 colon = test system: HCT-15 colon
MDA-MB-231 breast = test system: MDA-MB-231 breast
HT29 colon = test system: HT29 colon
NCI-H460 lung = test system: NCI-H460 lung
MCF7 breast = test system: MCF7 breast
ACHN renal = test system: ACHN renal
MALME-3M melanoma = test system: MALME-3M melanoma
NCI-H226 lung = test system: NCI-H226 lung
TK-10 renal = test system: TK-10 renal
T-47D breast = test system: T-47D breast
U251 CNS = test system: U251 CNS
MOLT-4 leukemia = test system: MOLT-4 leukemia
OVCAR-5 ovarian = test system: OVCAR-5 ovarian
HCC-2998 colon = test system: HCC-2998 colon
SW-620 colon = test system: SW-620 colon
SF-268 CNS = test system: SF-268 CNS
RXF 393 renal = test system: RXF 393 renal
SN12C renal = test system: SN12C renal
M14 melanoma = test system: M14 melanoma
UACC-257 melanoma = test system: UACC-257 melanoma
MDA-MB-435 = test system: MDA-MB-435
SK-OV-3 ovarian = test system: SK-OV-3 ovarian
RPMI-8226 leukemia = test system: RPMI-8226 leukemia
CCRF-CEM leukemia = test system: CCRF-CEM leukemia
HL-60(TB) leukemia = test system: HL-60(TB) leukemia

C=CC(=O)N1C/C(=C\c2ccc(N(C)C)cc2)C(=O)/C(=C/c2ccc(N(C)C)cc2)C1
TGI (OVCAR-3 ovarian): > 100 µM | TGI (OVCAR-8 ovarian): > 100 µM | TGI (SK-MEL-28 melanoma): > 100 µM | TGI (MDA-N): 78.7 µM | TGI (NCI/ADR-RES ovarian): > 100 µM | TGI (SK-MEL-2 melanoma): > 100 µM | TGI (SK-MEL-5 melanoma): > 100 µM | TGI (SF-539 CNS): > 100 µM | TGI (HCT-116 colon): > 100 µM | TGI (UACC-62 melanoma): > 100 µM | TGI (HOP-62 NSCLC): > 100 µM | TGI (K-562 leukemia): > 100 µM | TGI (A498 renal): > 100 µM | TGI (IGROV1 ovarian): > 100 µM | TGI (786-0 renal): > 100 µM | TGI (EKVX NSCLC): > 100 µM | TGI (SNB-75 CNS): > 100 µM | TGI (KM12 colon): > 100 µM | TGI (CAKI-1 renal): > 100 µM | TGI (COLO 205 colon): > 100 µM | TGI (OVCAR-4 ovarian): > 100 µM | TGI (PC-3 prostate): > 100 µM | TGI (BT-549 breast): > 100 µM | TGI (UO-31 renal): > 100 µM | TGI (HS 578T breast): > 100 µM | TGI (DU-145 prostate): > 100 µM | TGI (LOX IMVI melanoma): > 100 µM | TGI (SNB-19 CNS): > 100 µM | TGI (HOP-92 NSCLC): > 100 µM | TGI (SF-295 CNS): > 100 µM | TGI (A549 NSCLC): > 100 µM | TGI (NCI-H23 lung): > 100 µM | TGI (HCT-15 colon): > 100 µM | TGI (MDA-MB-231 breast): > 100 µM | TGI (HT29 colon): > 100 µM | TGI (NCI-H460 lung): > 100 µM | TGI (MCF7 breast): > 100 µM | TGI (ACHN renal): > 100 µM | TGI (MALME-3M melanoma): > 100 µM | TGI (NCI-H226 lung): > 100 µM | TGI (TK-10 renal): > 100 µM | TGI (T-47D breast): > 100 µM | TGI (U251 CNS): > 100 µM | TGI (MOLT-4 leukemia): > 100 µM | TGI (OVCAR-5 ovarian): > 100 µM | TGI (HCC-2998 colon): > 100 µM | TGI (SW-620 colon): > 100 µM | TGI (SF-268 CNS): > 100 µM | TGI (RXF 393 renal): > 100 µM | TGI (SN12C renal): > 100 µM | TGI (M14 melanoma): > 100 µM | TGI (UACC-257 melanoma): > 100 µM | TGI (MDA-MB-435): > 100 µM

Cc1cn(C2CC(n3cc(Cn4cc(F)c(=O)[nH]c4=O)nn3)C(CO)O2)c(=O)[nH]c1=O (configuration not stated)
TGI (OVCAR-3 ovarian): > 100 µM | TGI (OVCAR-8 ovarian): > 100 µM | TGI (SK-MEL-28 melanoma): > 100 µM | TGI (MDA-N): > 100 µM | TGI (NCI/ADR-RES ovarian): > 100 µM | TGI (SK-MEL-2 melanoma): > 100 µM | TGI (SK-MEL-5 melanoma): > 100 µM | TGI (SF-539 CNS): > 100 µM | TGI (HCT-116 colon): > 100 µM | TGI (UACC-62 melanoma): > 100 µM | TGI (HOP-62 NSCLC): > 100 µM | TGI (A498 renal): > 100 µM | TGI (IGROV1 ovarian): > 100 µM | TGI (786-0 renal): > 100 µM | TGI (EKVX NSCLC): > 100 µM | TGI (SNB-75 CNS): > 100 µM | TGI (KM12 colon): > 100 µM | TGI (CAKI-1 renal): > 100 µM | TGI (COLO 205 colon): > 100 µM | TGI (OVCAR-4 ovarian): > 100 µM | TGI (PC-3 prostate): > 100 µM | TGI (BT-549 breast): > 100 µM | TGI (UO-31 renal): > 100 µM | TGI (SK-OV-3 ovarian): > 100 µM | TGI (HS 578T breast): > 100 µM | TGI (DU-145 prostate): > 100 µM | TGI (LOX IMVI melanoma): > 100 µM | TGI (RPMI-8226 leukemia): > 100 µM | TGI (SNB-19 CNS): > 100 µM | TGI (HOP-92 NSCLC): > 100 µM | TGI (SF-295 CNS): > 100 µM | TGI (A549 NSCLC): > 100 µM | TGI (NCI-H23 lung): > 100 µM | TGI (CCRF-CEM leukemia): > 100 µM | TGI (HCT-15 colon): > 100 µM | TGI (MDA-MB-231 breast): > 100 µM | TGI (MCF7 breast): > 100 µM | TGI (ACHN renal): > 100 µM | TGI (MALME-3M melanoma): > 100 µM | TGI (HL-60(TB) leukemia): > 100 µM | TGI (NCI-H226 lung): > 100 µM | TGI (TK-10 renal): > 100 µM | TGI (T-47D breast): > 100 µM | TGI (U251 CNS): > 100 µM | TGI (MOLT-4 leukemia): > 100 µM | TGI (OVCAR-5 ovarian): > 100 µM | TGI (HCC-2998 colon): > 100 µM | TGI (SW-620 colon): > 100 µM | TGI (SF-268 CNS): > 100 µM | TGI (RXF 393 renal): > 100 µM | TGI (SN12C renal): > 100 µM | TGI (M14 melanoma): > 100 µM | TGI (UACC-257 melanoma): > 100 µM | TGI (MDA-MB-435): > 100 µM
